Laboratory results published in patent publication US20070128217A1 (priority 2003, published 2007).

Experiments:
[1] = test system: rabbit serum obtained by immunizing a rabbit with the SARS-CoV strain Frankfurt 1; type: binding; parameters: Binding of a rabbit serum to linear peptides / Binding of a rabbit serum to looped peptides / Rabbit serum linear peptides / Rabbit serum looped peptides / Binding of a rabbit serum to linear peptides of protein N of SARS-CoV Urbani (Rabbit serum linear peptides) / Binding of a rabbit serum to looped/cyclic peptides of protein N of SARS-CoV Urbani (Rabbit serum looped peptides): unit not given here
[2] = test system: control sera (pooled serum of ten healthy LUMC hospital workers; commercial negative donor pooled serum from the Dutch bloodbank); type: binding, human; parameters: Binding of Control serum LUMC to linear peptides / Binding of Control serum Blood-bank to linear peptides / Binding of Control serum LUMC to looped peptides / Binding of Control Serum Blood-Bank to Looped peptides / Binding of Control serum LUMC to linear peptides of the protein M of SARS-CoV Urbani / Binding of Control serum Blood-bank to linear peptides of the protein M of SARS-CoV Urbani / Binding of Control serum LUMC to looped peptides of the protein M of SARS-CoV Urbani / Binding of Control Serum Blood-Bank to Looped peptides of the protein M of SARS-CoV Urbani: unit not given here
[3] = test system: antibodies in sera from SARS patients (sera 1a, 1b, 2, 6, 37, 62, London, SARS-yellow, SARS-green); type: binding, human; parameters: Binding of serum 6 to linear peptides of protein X1 of SARS-CoV Urbani / Binding of serum 37 to linear peptides of protein X1 of SARS-CoV Urbani / Binding of serum 6 to looped/cyclic peptide (PEPSCAN-ELISA) / Binding of serum 37 to looped/cyclic peptide (PEPSCAN-ELISA) / Binding of serum 37 to looped/cyclic peptides of protein X1 of SARS-CoV Urbani / Binding of serum 6 to linear peptides of protein X2 / Binding of serum 37 to linear peptides of protein X2 / Binding of serum 37 to looped/cyclic peptides of protein X2 of SARS-CoV Urbani / Binding of serum 6 to linear peptides of protein M of SARS-CoV Urbani / Binding of serum 37 to linear peptides of protein M of SARS-CoV Urbani / Binding of serum 6 to looped/cyclic peptides of protein M of SARS-CoV Urbani / Binding of serum 37 to looped/cyclic peptides of protein M of SARS-CoV Urbani / Binding of serum 6 to linear peptides of protein X3 of SARS-CoV Urbani / Binding of serum 37 to linear peptides of protein X3 of SARS-CoV Urbani / Binding of serum 37 to looped/cyclic peptides of protein X3 of SARS-CoV Urbani / Binding of serum 6 to linear peptides of protein X4 of SARS-CoV Urbani / Binding of serum 37 to linear peptides of protein X4 of SARS-CoV Urbani / Binding of serum 37 to looped/cyclic peptides of protein X4 of SARS-CoV Urbani / Binding of serum 6 to linear peptides of protein X5 of SARS-CoV Urbani / Binding of serum 37 to linear peptides of protein X5 of SARS-CoV Urbani / Binding of serum 37 to looped/cyclic peptides of protein X5 of SARS-CoV Urbani / Binding of serum 6 to linear peptides of protein N of SARS-CoV Urbani / Binding of serum 37 to linear peptides of protein N of SARS-CoV Urbani / Binding of serum 6 to linear peptide (PEPSCAN-ELISA) / Binding of serum 1a to looped/cyclic peptides of protein N of SARS-CoV Urbani / Binding of serum 1b to looped/cyclic peptides of protein N of SARS-CoV Urbani / Binding of serum 2 to looped/cyclic peptides of protein N of SARS-CoV Urbani / Binding of serum 6 to looped/cyclic peptides of protein N of SARS-CoV Urbani / Binding of serum 37 to looped/cyclic peptides of protein N of SARS-CoV Urbani / Binding of serum 62 to looped/cyclic peptides of protein N of SARS-CoV Urbani / Binding of serum London to looped/cyclic peptides of protein N of SARS-CoV Urbani / Binding of serum SARS-green to looped/cyclic peptides of protein N of SARS-CoV Urbani: unit not given here

## MDLFMRFFTLGSITA
[1]
  Binding of a rabbit serum to linear peptides: 0.5
  Binding of a rabbit serum to looped peptides: 0.5
[2]
  Binding of Control Serum Blood-Bank to Looped peptides: 0.6
  Binding of Control serum Blood-bank to linear peptides: 0.7
  Binding of Control serum LUMC to linear peptides: 0.6
  Binding of Control serum LUMC to looped peptides: 0.6
[3]
  Binding of serum 1a to linear peptides of protein X1 of SARS-CoV Urbani: 0.8
  Binding of serum 1a to looped/cyclic peptide (PEPSCAN-ELISA): 0.5
  Binding of serum 1b to linear peptides of protein X1 of SARS-CoV Urbani: 0.7
  Binding of serum 1b to looped/cyclic peptide (PEPSCAN-ELISA): 0.3
  Binding of serum 2 to linear peptides of protein X1 of SARS-CoV Urbani: 0.7
  Binding of serum 2 to looped/cyclic peptide (PEPSCAN-ELISA): 0.4
  Binding of serum 6 to linear peptides of protein X1 of SARS-CoV Urbani: 0.5
  Binding of serum 6 to looped/cyclic peptide (PEPSCAN-ELISA): 1.0
  Binding of serum 37 to linear peptides of protein X1 of SARS-CoV Urbani: 0.7
  Binding of serum 37 to looped/cyclic peptide (PEPSCAN-ELISA): 0.4
  Binding of serum 62 to linear peptides of protein X1 of SARS-CoV Urbani: 0.7
  Binding of serum 62 to looped/cyclic peptide (PEPSCAN-ELISA): 0.5
  Binding of serum London to linear peptides of protein X1 of SARS-CoV Urbani: 0.3
  Binding of serum London to looped/cyclic peptide (PEPSCAN-ELISA): 0.8
  Binding of serum SARS-green to linear peptides of protein X1 of SARS-CoV Urbani: 0.6
  Binding of serum SARS-green to looped/cyclic peptide (PEPSCAN-ELISA): 0.4
  Binding of serum SARS-yellow to linear peptides of protein X1 of SARS-CoV Urbani: 0.5
  Binding of serum SARS-yellow to looped/cyclic peptide (PEPSCAN-ELISA): 0.5

## VIGVAFLAVFQSATK
[1]
  Binding of a rabbit serum to linear peptides: 0.1
  Binding of a rabbit serum to looped peptides: 0.6
[2]
  Binding of Control Serum Blood-Bank to Looped peptides: 0.5
  Binding of Control serum Blood-bank to linear peptides: 0.5
  Binding of Control serum LUMC to linear peptides: 0.5
  Binding of Control serum LUMC to looped peptides: 0.5
[3]
  Binding of serum 1a to linear peptides of protein X1 of SARS-CoV Urbani: 0.5
  Binding of serum 1a to looped/cyclic peptide (PEPSCAN-ELISA): 0.4
  Binding of serum 1b to linear peptides of protein X1 of SARS-CoV Urbani: 0.4
  Binding of serum 1b to looped/cyclic peptide (PEPSCAN-ELISA): 0.3
  Binding of serum 2 to linear peptides of protein X1 of SARS-CoV Urbani: 0.4
  Binding of serum 2 to looped/cyclic peptide (PEPSCAN-ELISA): 0.3
  Binding of serum 6 to linear peptides of protein X1 of SARS-CoV Urbani: 0.4
  Binding of serum 6 to looped/cyclic peptide (PEPSCAN-ELISA): 0.6
  Binding of serum 37 to linear peptides of protein X1 of SARS-CoV Urbani: 0.5
  Binding of serum 37 to looped/cyclic peptide (PEPSCAN-ELISA): 0.4
  Binding of serum 62 to linear peptides of protein X1 of SARS-CoV Urbani: 0.4
  Binding of serum 62 to looped/cyclic peptide (PEPSCAN-ELISA): 0.4
  Binding of serum London to linear peptides of protein X1 of SARS-CoV Urbani: 0.2
  Binding of serum London to looped/cyclic peptide (PEPSCAN-ELISA): 0.7
  Binding of serum SARS-green to linear peptides of protein X1 of SARS-CoV Urbani: 0.1
  Binding of serum SARS-green to looped/cyclic peptide (PEPSCAN-ELISA): 0.2
  Binding of serum SARS-yellow to linear peptides of protein X1 of SARS-CoV Urbani: 0.2
  Binding of serum SARS-yellow to looped/cyclic peptide (PEPSCAN-ELISA): 0.5

## EVQQELYSPLFLIVA
[1]
  Rabbit serum linear peptides: 0.5
  Rabbit serum looped peptides: 0.5
[2]
  Binding of Control Serum Blood-Bank to Looped peptides: 0.7
  Binding of Control serum Blood-bank to linear peptides: 0.5
  Binding of Control serum LUMC to linear peptides: 0.5
  Binding of Control serum LUMC to looped peptides: 0.8
[3]
  Binding of serum 1a to linear peptides of protein X4 of SARS-CoV Urbani: 0.7
  Binding of serum 1a to looped/cyclic peptides of protein X4 of SARS-CoV Urbani: 0.7
  Binding of serum 1b to linear peptides of protein X4 of SARS-CoV Urbani: 0.6
  Binding of serum 1b to looped/cyclic peptides of protein X4 of SARS-CoV Urbani: 0.6
  Binding of serum 2 to linear peptides of protein X4 of SARS-CoV Urbani: 0.4
  Binding of serum 2 to looped/cyclic peptides of protein X4 of SARS-CoV Urbani: 0.6
  Binding of serum 6 to linear peptides of protein X4 of SARS-CoV Urbani: 0.9
  Binding of serum 6 to looped/cyclic peptides of protein X4 of SARS-CoV Urbani: 0.5
  Binding of serum 37 to linear peptides of protein X4 of SARS-CoV Urbani: 0.8
  Binding of serum 37 to looped/cyclic peptides of protein X4 of SARS-CoV Urbani: 0.7
  Binding of serum 62 to linear peptides of protein X4 of SARS-CoV Urbani: 0.7
  Binding of serum 62 to looped/cyclic peptides of protein X4 of SARS-CoV Urbani: 0.6
  Binding of serum London to linear peptides of protein X4 of SARS-CoV Urbani: 1.0
  Binding of serum London to looped/cyclic peptides of protein X4 of SARS-CoV Urbani: 0.3
  Binding of serum SARS-green to linear peptides of protein X4 of SARS-CoV Urbani: 0.8
  Binding of serum SARS-green to looped/cyclic peptides of protein X4 of SARS-CoV Urbani: 0.3
  Binding of serum SARS-yellow to linear peptides of protein X4 of SARS-CoV Urbani: 0.6
  Binding of serum SARS-yellow to looped/cyclic peptides of protein X4 of SARS-CoV Urbani: 0.9
  Recognition of the peptide by sera of SARS-CoV infected individuals, and form (linear, looped/cyclic) in which it is recognized: recognized in looped/cyclic form
